Target: T1, STING (Homo sapiens, UniProt Q86WV6, G230A/H232R/R293Q/R71H)
T1 construct: host or cells: THP1-Dual KO-IFNAR2 cells
Experiment: STING reporter assay (luciferase) in THP1-Dual KO-IFNAR2 cells stimulated with 2′3′cGAMP
Format: cell-based
Conditions: 2′3′cGAMP 15 μM final, 24 h, luciferase reporter activity, read-out: Pharmaron, THP1_IFNAR2 STING 24 h Luci Normalized: GeoMean EC50
Summary of the method: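 THP1-Dual KO-IFNAR2 cells (2×10E6 cells/mL) exposed to compounds at 0.0017-100 μM final and stimulated with 2′3′cGAMP (15 μM final) delivered via Lipofectamine 2000. After 24 h at 37° C., secreted luciferase in supernatant read with QUANTI-Luc Plus; EC50 derived from luminescence.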

T1 sequence (Q86WV6 whole entry R71H/G230A/H232R/R293Q): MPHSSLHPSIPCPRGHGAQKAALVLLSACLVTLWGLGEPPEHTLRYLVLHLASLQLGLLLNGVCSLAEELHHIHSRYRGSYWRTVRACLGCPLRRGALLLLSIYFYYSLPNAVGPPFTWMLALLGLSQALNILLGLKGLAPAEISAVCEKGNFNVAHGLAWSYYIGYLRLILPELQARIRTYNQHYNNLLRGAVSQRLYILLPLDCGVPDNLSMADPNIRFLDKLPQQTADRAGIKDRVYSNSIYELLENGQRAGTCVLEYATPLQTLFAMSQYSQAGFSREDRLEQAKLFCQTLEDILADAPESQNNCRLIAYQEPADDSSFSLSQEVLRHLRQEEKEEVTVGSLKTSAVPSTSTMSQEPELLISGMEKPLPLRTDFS

Row | Structure (SMILES) | EC50 [nM]
1 | O=C(Nc1c[nH]c2ccc(OCc3ccc(C(F)(F)F)cc3)cc12)c1cscn1 [Compound 165, N-(5-((4-(trifluoromethyl)benzyl)oxy)-1H-indol-3-yl)thiazole-4-carboxamide] | 1000 to 5000
2 | Cc1oncc1C(=O)Nc1c[nH]c2ccc(OCCc3ccc(C(F)(F)F)cc3)cc12 [Compound 111] | 5000 to 100000
3 | O=C(Nc1c[nH]c2ccc(O[C@H]3C[C@@H](c4ccc(C(F)(F)F)cc4)C3)cc12)C1CC12CC2 (some centres unmarked) [Compound 172, N-(5-((1s,3s)-3-(4-(trifluoromethyl)phenyl)cyclobutoxy)-1H-indol-3-yl)spiro[2.2]pentane-1-carboxamide] | 200 to 1000
4 | O=C(Nc1c[nH]c2ccc(COCc3ccc(C(F)(F)F)cc3)cc12)C12CC(c3ccccc3)(C1)C2 [Compound 130, 3-phenyl-N-(5-(((4-(trifluoromethyl)benzyl)oxy)methyl)-1H-indol-3-yl)bicyclo[1.1.1]pentane-1-carboxamide] | 40 to 200
5 | O=C(Nc1c[nH]c2ccc(O[C@H]3C[C@@H](c4ccc(C(F)(F)F)nc4)C3)cc12)c1ccccc1 [Compound 216, N-(5-(cis-3-(6-(trifluoromethyl)pyridin-3-yl)cyclobutoxy)-1H-indol-3-yl)benzamide] | 40 to 200
6 | Cn1ccnc1C(=O)Nc1c[nH]c2ccc(O[C@H]3C[C@@H](c4ccc(C(F)(F)F)cc4)C3)cc12 [Compound 139, 1-methyl-N-(5-((1s,3s)-3-(4-(trifluoromethyl)phenyl)cyclobutoxy)-1H-indol-3-yl)-1H-imidazole-2-carboxamide] | 200 to 1000
7 | O=C(Nc1c[nH]c2ccc(OCCc3ccc(C(F)(F)F)cc3)cc12)c1cncs1 [Compound 113, N-(5-(4-(trifluoromethyl)phenethoxy)-1H-indol-3-yl)thiazole-5-carboxamide] | 200 to 1000
8 | O=C(Nc1c[nH]c2ccc(OCc3ccc(C(F)(F)F)cc3)cc12)c1ccccn1 [Compound 149, N-(5-((4-(trifluoromethyl)benzyl)oxy)-1H-indol-3-yl)picolinamide] | 5000 to 100000
9 | Cn1cc(C(=O)Nc2c[nH]c3ccc(O[C@H]4C[C@@H](c5ccc(C(F)(F)F)cc5)C4)cc23)nn1 [Compound 241] | 200 to 1000
10 | O=C(Nc1c[nH]c2ccc(OCc3ccc(C(F)(F)F)cc3)cc12)c1ccccc1 [Compound 218, N-(5-((4-(trifluoromethyl)benzyl)oxy)-1H-indol-3-yl)benzamide] | 200 to 1000
11 | O=C(Nc1c[nH]c2ccc(CCOc3ccc(C(F)(F)F)cc3)cc12)c1ncco1 [Compound 145, N-(5-(2-(4-(trifluoromethyl)phenoxy)ethyl)-1H-indol-3-yl)oxazole-2-carboxamide] | 200 to 1000
12 | O=C(Nc1c[nH]c2ccc(O[C@H]3C[C@H](c4ccc(C(F)(F)F)cc4)C3)cc12)C12CC(C1)C2 [Compound 212, N-{5-[(1R,3R)-3-[4-(trifluoromethyl)phenyl]cyclobutoxy]-1H-indol-3-yl}bicyclo[1.1.1]pentane-1-carboxamide] | 40 to 200
13 | Cn1cc(C(=O)Nc2c[nH]c3ccc(O[C@H]4C[C@H](c5ccc(C(F)(F)F)nc5)C4)cc23)nn1 [Compound 219, 1-methyl-N-(5-(trans-3-(6-(trifluoromethyl)pyridin-3-yl)cyclobutoxy)-1H-indol-3-yl)-1H-1,2,3-triazole-4-carboxamide] | 200 to 1000
14 | O=C(Nc1c[nH]c2ccc(O[C@H]3C[C@H](c4ccc(C(F)(F)F)cc4)C3)cc12)c1ncccc1F [Compound 231, 3-fluoro-N-{5-[(1R,3R)-3-[4-(trifluoromethyl)phenyl]cyclobutoxy]-1H-indol-3-yl}pyridine-2-carboxamide] | 40 to 200
15 | O=C(Nc1c[nH]c2ccc(O[C@H]3C[C@@H](c4ccc(C(F)(F)F)cc4)C3)cc12)C1CC2(CCC2)C1 [Compound 155, N-(5-((1s,3s)-3-(4-(trifluoromethyl)phenyl)cyclobutoxy)-1H-indol-3-yl)spiro[3.3]heptane-2-carboxamide] | 200 to 1000
16 | O=C(Nc1c[nH]c2ccc(CCOc3ccc(C(F)(F)F)cc3)cc12)c1cccnc1 [Compound 195, N-(5-(2-(4-(trifluoromethyl)phenoxy)ethyl)-1H-indol-3-yl)nicotinamide] | 200 to 1000
17 | Cc1noc(C)c1C(=O)Nc1c[nH]c2ccc(OCc3ccc(C(F)(F)F)cc3)cc12 [Compound 153, 3,5-dimethyl-N-(5-((4-(trifluoromethyl)benzyl)oxy)-1H-indol-3-yl)isoxazole-4-carboxamide] | 200 to 1000
18 | O=C(Nc1c[nH]c2ccc(O[C@H]3C[C@H](c4ccc(C(F)(F)F)cc4)C3)cc12)c1ccn[nH]1 [Compound 226, N-{5-[(1R,3R)-3-[4-(trifluoromethyl)phenyl]cyclobutoxy]-1H-indol-3-yl}-1H-pyrazole-5-carboxamide] | 40 to 200
19 | Cn1nccc1C(=O)Nc1c[nH]c2ccc(O[C@H]3C[C@H](c4ccc(C(F)(F)F)cc4)C3)cc12 [Compound 237, 1-methyl-N-{5-[(1R,3R)-3-[4-(trifluoromethyl)phenyl]cyclobutoxy]-1H-indol-3-yl}-1H-pyrazole-5-carboxamide] | 200 to 1000
20 | O=C(Nc1c[nH]c2ccc(O[C@H]3C[C@@H](c4ccc(C(F)(F)F)cc4)C3)cc12)c1ccncc1 [Compound 166, N-(5-((1s,3s)-3-(4-(trifluoromethyl)phenyl)cyclobutoxy)-1H-indol-3-yl)isonicotinamide] | 200 to 1000
21 | O=C(Nc1c[nH]c2ccc(OCCc3ccc(C(F)(F)F)cc3)cc12)c1ncccc1F [Compound 109, 3-fluoro-N-(5-(4-(trifluoromethyl)phenethoxy)-1H-indol-3-yl)picolinamide] | 200 to 1000
22 | O=C(Nc1c[nH]c2ccc(O[C@H]3C[C@@H](c4ccc(C(F)(F)F)cc4)C3)cc12)c1ccn[nH]1 [Compound 167, N-(5-((1s,3s)-3-(4-(trifluoromethyl)phenyl)cyclobutoxy)-1H-indol-3-yl)-1H-pyrazole-5-carboxamide] | 40 to 200

Now from value to molecule:

Row | EC50 [nM] | Structure (SMILES)
23 | 40 to 200 | O=C(Nc1c[nH]c2ccc(CCOc3ccc(C(F)(F)F)cc3)cc12)C1CC2(CCC2)C1 [Compound 144, N-(5-(2-(4-(trifluoromethyl)phenoxy)ethyl)-1H-indol-3-yl)spiro[3.3]heptane-2-carboxamide]
24 | 1000 to 5000 | O=C(Nc1c[nH]c2ccc(OCC[C@@H]3C[C@@H]4CN(CC(F)(F)F)C[C@@H]4C3)cc12)C1CC12CC2 (stereo partly drawn) [Compound 158, N-(5-(2-((3aR,5r,6aS)-2-(2,2,2-trifluoroethyl)octahydrocyclopenta[c]pyrrol-5-yl)ethoxy)-1H-indol-3-yl)spiro[2.2]pentane-1-carboxamide]
25 | 40 to 200 | O=C(Nc1c[nH]c2ccc(OCc3ccc(C(F)(F)F)cc3)cc12)C1CC12CCC2 (centres unmarked) [Compound 236, N-(5-{[4-(trifluoromethyl)phenyl]methoxy}-1H-indol-3-yl)spiro[2.3]hexane-1-carboxamide]
26 | 200 to 1000 | O=C(Nc1c[nH]c2ccc(OCC[C@@H]3C[C@@H]4CN(CC(F)(F)F)C[C@@H]4C3)cc12)C1CC2(COC2)C1 [Compound 206, N-(5-(2-((3aR,5r,6aS)-2-(2,2,2-trifluoroethyl)octahydrocyclopenta[c]pyrrol-5-yl)ethoxy)-1H-indol-3-yl)-2-oxaspiro[3.3]heptane-6-carboxamide]
27 | 40 to 200 | Cn1cc(C(=O)Nc2c[nH]c3ccc(OCCc4ccc(C(F)(F)F)cc4)cc23)nn1 [Compound 244, 1-methyl-N-(5-(4-(trifluoromethyl)phenethoxy)-1H-indol-3-yl)-1H-1,2,3-triazole-4-carboxamide]
28 | 200 to 1000 | O=C(Nc1c[nH]c2ccc(OCCc3ccc(C(F)(F)F)cc3)cc12)C12CC(C1)C2 [Compound 131, N-(5-(4-(trifluoromethyl)phenethoxy)-1H-indol-3-yl)bicyclo[1.1.1]pentane-1-carboxamide]
29 | 200 to 1000 | O=C(Nc1c[nH]c2ccc(OCC[C@@H]3C[C@@H]4CN(CC(F)(F)F)C[C@@H]4C3)cc12)c1cccnc1 [Compound 182, N-(5-(2-((3aR,5r,6aS)-2-(2,2,2-trifluoroethyl)octahydrocyclopenta[c]pyrrol-5-yl)ethoxy)-1H-indol-3-yl)nicotinamide]
30 | 200 to 1000 | O=C(CC1CC1)Nc1c[nH]c2ccc(OCC[C@@H]3C[C@@H]4CN(CC(F)(F)F)C[C@@H]4C3)cc12 [Compound 184]
31 | 200 to 1000 | Cn1nccc1C(=O)Nc1c[nH]c2ccc(OCC[C@@H]3C[C@@H]4CN(CC(F)(F)F)C[C@@H]4C3)cc12 [Compound 181, 1-methyl-N-(5-(2-((3aR,5r,6aS)-2-(2,2,2-trifluoroethyl)octahydrocyclopenta[c]pyrrol-5-yl)ethoxy)-1H-indol-3-yl)-1H-pyrazole-5-carboxamide]
32 | 200 to 1000 | O=C(Nc1c[nH]c2ccc(OCc3ccc(C(F)(F)F)cc3)cc12)C12CC(F)(C1)C2 [Compound 138, 3-fluoro-N-(5-((4-(trifluoromethyl)benzyl)oxy)-1H-indol-3-yl)bicyclo[1.1.1]pentane-1-carboxamide]
33 | 200 to 1000 | O=C(Nc1c[nH]c2ccc(CCOc3ccc(C(F)(F)F)cc3)cc12)C1CC12CC2 (centres unmarked) [Compound 200, N-(5-(2-(4-(trifluoromethyl)phenoxy)ethyl)-1H-indol-3-yl)spiro[2.2]pentane-1-carboxamide]
34 | 200 to 1000 | Cc1noc(C)c1C(=O)Nc1c[nH]c2ccc(OCC[C@@H]3C[C@@H]4CN(CC(F)(F)F)C[C@@H]4C3)cc12 [Compound 189, 3,5-dimethyl-N-(5-(2-((3aR,5r,6aS)-2-(2,2,2-trifluoroethyl)octahydrocyclopenta[c]pyrrol-5-yl)ethoxy)-1H-indol-3-yl)isoxazole-4-carboxamide]
35 | 200 to 1000 | CC12CC(C(=O)Nc3c[nH]c4ccc(OCc5ccc(C(F)(F)F)cc5)cc34)(C1)C2 [Compound 163, 3-methyl-N-(5-((4-(trifluoromethyl)benzyl)oxy)-1H-indol-3-yl)bicyclo[1.1.1]pentane-1-carboxamide]

— patent US20230250060A1 (IFM Due, Inc., priority 2022, published 2023)
